# Data reported in patent publication US20220315895A1, “METHODS OF MAKING OLIGOPOTENT AND UNIPOTENT PRECURSORS” (Transfusion Health, LLC, priority 2019, published 2022).
# Assays:
# [1] = test system: expanded cord blood CD34+ cells, granulocyte precursor populations; experiment: Granulocyte Differentiation Culture, precursor phenotyping (Example 39); type: cell-based, human
# Text: The remaining cells from duplicate flasks were pooled, and CD34+ cells were re-enriched using the CD34 MicroBead Kit—UltraPure (Miltenyi Biotec). CD34 purity was verified by flow cytometry. Enriched CD34+ cells were then placed into Granulocyte Differentiation Culture, described below.
# Granulocyte Differentiation Cultures were initiated prior to culture in Compound 1.010 (Unexpanded Granulocyte Differentiation Culture), following 21 days of culture in Compound 1.010 (+Formula I-expanded Differentiation Culture), or following 21 days of culture in Control condition (Control-expanded Differentiation Culture). Purified CD34+ cells were plated at 1000 cells per well in a 48-well plate, in granulocyte differentiation medium, made by combining StemSpan SFEM and StemSpan 100X Myeloid Expansion Supplement (formulated for differentiation of granulocytes) containing SCF, TPO, G-CSF, and GM-CSF (STEMCELL). Cells were plated in 300 μl/well. Unexpanded cells were plated in triplicate; Formula I and Control-expanded cells were plated in quadruplicate. Plates were then placed in a humidified incubator at atmospheric oxygen and 5% CO2. Exact cell numbers dispensed per well were quantified with flow cytometry for later calculations.
# On days 7, and 10, additional differentiation medium was prepared and cells were passaged to fresh wells.
# On days 7 and 13 of Granulocyte Differentiation Culture, a portion of the culture was removed for analysis and quantification of granulocyte differentiation via flow cytometry. Cells were stained with antibodies to CD16, CD15, CD14, CD13, CD11b, and CD34. Cells were gated into granulocyte precursor populations of promyelocyte (CD34−/CD14−/CD15+/CD16-/CD13high/CD11b−), myelocyte (CD34−/CD14−/CD15+/CD16−/CD13dim/CD11b+) and “metamyelocyte+” (CD34−/CD14−/CD15+/CD11b+/CD13+/CD16+). Promyelocyte is the least mature subset, myelocytes are at an intermediate level of maturity, and “metamyelocyte+” encompasses cells at the highest levels of granulocyte maturation, including metamyelocytes and mature neutrophils. Fractional representation and total numbers of granulocyte precursor subsets were calculated. Cell numbers calculated at day 13 account for passaging.
# [2] = test system: CD3+ and CD3+/CD8+ T cells; experiment: T-cell Maturation and CD8 Maturation Culture (Example 41); type: cell-based, human
# Protocol: Following 14 days in Lymphoid Progenitor Differentiation Cultures, cells were placed into T- and NK-cell Maturation Cultures.
# For T-cell Maturation Cultures, 24-well non-TC-treated plates were coated with StemSpan Lymphoid Differentiation Coating Material (STEMCELL Technologies) according to the manufacturer's instructions. Immediately prior to initiation of T-cell Maturation Culture, wells were washed with PBS. Cells from L Diff Cultures were plated at 50,000 cells/well in 500 μl of T Cell Progenitor Maturation Medium, comprising StemSpan SFEM II medium with StemSpan T Cell Progenitor Maturation Supplement.
# Following 4 days of culture, NK- and T-cell Maturation Cultures' medias were replenished by adding an equal volume of the same culture media added on day 14. At days 21 and 25 of NK- or T-cell Maturation Cultures, half-media changes were performed by removing half of the total volume of media without disturbing cells and adding media freshly prepared as on day 14.
# Following 7 and 14 days in NK- and T-cell Maturation Culture (21 and 28 days from initiation of Lymphoid Differentiation Culture, respectively), cells were stained with antibodies to CD56, CD3, CD161, CD94, and CD16 and analyzed via flow cytometry to quantify T and NK lineage phenotypes.
# T-cell Maturation Cultures were continued for an additional 14 days, plated at 50,000-75,000 cells/well into 24-well non-TC-treated plates freshly coated with Lymphoid Differentiation Coating Material as above. Cultures were continued for this 14 day-period with half-media changes every 3-4 days.
# Following a total of 42 days in Lymphoid Progenitor Differentiation and T-cell Maturation cultures, T cells from 14-day+Formula I-expanded L Diff Culture and 14-day DMSO-expanded L Diff Culture were placed into CD8 Maturation Culture as follows: A 24-well plate was coated with Lymphocyte Differentiation Coating Medium as above. […] Following 6 days in this maturation medium, cells were analyzed for mature T cell phenotypes by staining for CD3, CD8a, CD4, CD56 and performing flow cytometry on an Attune N×T flow cytometer. […]
# [3] = +Formula I Conditions, 13 days in Granulocyte Differentiation Culture, N 4
# [4] = Formula I-expanded (21 days), seven days Granulocyte Differentiation Culture
# [5] = CD8, Lymphoid Diff day 49, +Formula I-expanded CD34+ cells
smiles,measurement,setting,value
CC(C)(C)C(=O)Nc1ccc2c(c1)C(O)c1ccccc1-2 (stereo not drawn) [Compound 1.010],"Metamyelocyte+, Mean % of CD15+ cells",[1]; [3],35.2%
same,"Myelocyte, Mean % of CD15+ cells",[1]; [3],36.8%
same,"Promyelocyte, Mean % of CD15+ cells",[1]; [3],28%
same,"cells remaining undifferentiated, without expression of CD15",[1]; [4],20%
same,cells still expressing CD34,[1]; [4],1.9%
same,cells with high CD16 indicative of full differentiation to neutrophils,[1]; [4],No cells were detected with high CD16
same,"metamyelocytes (CD34−/CD14−/CD15+/CD13+/CD11b+/CD16+), of cultured cells",[1]; [4],8%
same,"myelocytes (CD34−/CD14−/CD15+/CD13low/CD11b+/CD16−), of cultured cells",[1]; [4],15%
same,"promyelocytes (CD34−/CD14−/CD15+/CD13+/CD11b−/CD16−), of cultured cells",[1]; [4],55%
same,% Mature cells: CD4+/CD8α+ of Live/CD3+/CD56−,[2]; [5],0.5%
same,% Mature cells: CD4−/CD8α+ of Live/CD3+/CD56−,[2]; [5],95%
same,"CD8a+ cells, of CD3+ cells",[2]; CD34+ cells first expanded for 14 days in +Formula I conditions,95%
